Assay results reported in US6500827B2, “Drug combinations” (Pharmacia & Upjohn Company, priority 1998, dated 2002).

Assays:
dopamine uptake = tested on: dopamine uptake
From the text: (§1) Leonard-BE, “Noradrenaline in basic models of depression.” European-Neuropsychopharnacol. April 1997; 7 Suppl 1: S11-6; discussion S71-3.

monoamine oxidase (MAO) = tested on: monoamine oxidase (MAO)
From the text: as §1

norepinephrine uptake = conditions: compared with classical tricyclic antidepressants
From the text: as §1

serotonin uptake = tested on: serotonin uptake
From the text: as §1

[1] = tested on: muscarinic cholinergic receptors; assay: interaction with muscarinic cholinergic receptors; assay type: binding
I-adrenerigic receptors = assay: interaction with I-adrenerigic receptors; assay type: binding
[2] = tested on: patients with a DSM-III-R diagnosis of Obsessive Compulsive Disorder; assay: trial in patients with Obsessive Compulsive Disorder; assay type: in vivo, human; conditions: of 10 OCD patients, 6 mg first week then 8 mg, 3 to 4 weeks
From the text: This study is provided to illustrate the usefulness of using reboxetine as a treatment for OCD and the invention described herein should not be considered limited by this example.

8-OH-DPAT hypothermia = conditions: in vivo; cited from earlier work
tolerability and safety = conditions: in vivo
Experimental: It is more commonly provided in dosages of from 1 to 20 mg per patient per day. […] Other adverse reactions are possible. […] Both compounds may be administered by any suitable method including a convenient oral dosage form. A preferred method is oral dosing twice a day.

Compound	dopamine uptake inhibitory activity (dopamine uptake)	monoamine oxidase (MAO) inhibitory activity (monoamine oxidase (MAO))	inhibition of the reuptake of noradrenaline (norepinephrine uptake)	serotonin uptake inhibitory activity (serotonin uptake)	interaction with muscarinic cholinergic receptors [1]	interaction with I-adrenerigic receptors (I-adrenerigic receptors)	patients judged minimally improved at CGI last assessment [2]	patients judged much improved at CGI last assessment [2]	patients judged very much improved at CGI last assessment [2]	patients unchanged at CGI last assessment [2]	effect in the 8-OH-DPAT hypothermia test (8-OH-DPAT hypothermia)	tolerability / safety (tolerability and safety)
CCOc1ccccc1OC(c1ccccc1)C1CNCCO1 (stereo not drawn) [reboxetine]	no dopamine uptake inhibitory activity	devoid	inhibitory properties of classical tricyclic antidepressants	only marginal	without showing any appreciable interaction	without showing any appreciable interaction	2	4	one	3	ineffective	
CC(C)NCC(O)COc1cccc2[nH]ccc12 (stereo not drawn) [Pindolol, 1-(1H-Indol-4-yloxy)-3-[(1-methylethyl)amino]-2-propanol]												fairly safe
